Source: patent US6358885B1, “Substituted phenylheterocyclic herbicides” (Mississippi State University, priority 1992, dated 2002)

Tests used:
wild buckwheat = test: Test C preemergence/postemergence greenhouse plant response rating 0 to 100; assay type: in vivo, Polygonum convolvulus; details: PREEMERGENCE
Text: (§1) The compounds evaluated in this test were formulated in a non-phytoxic solvent and applied to the soil surface before plant seedlings emerged (preemergence application), to water that covered the soil surface (flood application), and to plants that were in the one-to-four leaf stage (postemergence application). A sandy loam soil was used for the preemergence and postemergence tests, while a silt loam soil was used in the flood test. Water depth was approximately 2.5 cm for the flood test and was maintained at this level for the duration of the test. Plant species in the preemergence and postemergence tests consisted of barley (Hordeum vulgare), bedstraw (Galium aparine), blackgrass (Alopecurus myosuroides), chickweed (Stellaria media), corn (Zea mays), cotton (Gossypium hirsutum), crabgrass (Digitaria sanguinalis), downy brome (Bromus tectorum), giant foxtail (Setaria faberii), lambsquarters (Chenopodium album), morningglory (Ipomoea hederacea), pigweed ([…]), rape (Brassica napus), ryegrass (Lolium multiflorum), sorghum (Sorghum bicolor), soybean (Glycine max), speedwell (Veronica persica), sugar beet (Beta vulgaris), velvetleaf (Abutilon theophrasti), wheat (Triticum aestivum), wild buckwheat (Polygonum convolvulus), and wild oat (Avena fatua). All plant species were planted one day before application of the compound for the preemergence portion-of this test. Plantings of these species were adjusted to produce plants of appropriate size for the post-emergence portion of the test. […] All plant species were grown using normal greenhouse practices. Visual evaluations of injury expressed on treated plants, when compared to untreated controls, were recorded approximately fourteen to twenty one days after application of the test compound. […] A dash (-) response means no test result.

barnyardgrass = test: Test B preemergence/postemergence greenhouse plant response rating 0 to 10; assay type: in vivo, Echinochloa crus-galli; details: 0 to 10 scale
In short: (§2)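 Postemergence treatment of plants two to eighteen cm tall ran alongside preemergence treatment of planted seed, each using compound in a non-phytotoxic solvent.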

barley = test: as above; assay type: in vivo, Hordeum vulgare; details: 0 to 10 scale
In short: as §2

chickweed [1] = test: as above; assay type: in vivo, Stellaria media; details: 0 to 10 scale
In short: as §2

giant foxtail [2] = test: as above; assay type: in vivo, Setaria faberii; details: 0 to 10 scale
In short: as §2

chickweed [3] = test: Test C preemergence/postemergence greenhouse plant response rating 0 to 100; assay type: in vivo, Stellaria media; details: PREEMERGENCE; for Plant response rating, Chickweed: 0 to 100 scale
Text: as §1

crabgrass [4] = test: Test B preemergence/postemergence greenhouse plant response rating 0 to 10; assay type: in vivo, Digitaria spp.; details: 0 to 10 scale
In short: as §2

wild oat = test: Test C preemergence/postemergence greenhouse plant response rating 0 to 100; assay type: in vivo, Avena fatua; details: PREEMERGENCE
Text: as §1

corn = test: Test B preemergence/postemergence greenhouse plant response rating 0 to 10; assay type: in vivo, Zea mays; details: 0 to 10 scale
In short: as §2

wheat = test: as above; assay type: in vivo, Triticum aestivum; details: 0 to 10 scale
In short: as §2

rape = test: as above; assay type: in vivo, Brassica napus; details: 0 to 10 scale
In short: as §2

bedstraw = test: Test C preemergence/postemergence greenhouse plant response rating 0 to 100; assay type: in vivo, Galium aparine; details: PREEMERGENCE; for Plant response rating, Bedstraw: 0 to 100 scale
Text: as §1

sorghum = test: Test B preemergence/postemergence greenhouse plant response rating 0 to 10; assay type: in vivo, Sorghum bicolor; details: 0 to 10 scale
In short: as §2

giant foxtail [5] = test: Test C preemergence/postemergence greenhouse plant response rating 0 to 100; assay type: in vivo, Setaria faberii; details: PREEMERGENCE; for Plant response rating, Giant foxtail: 0 to 100 scale
Text: as §1

downy brome = test: as above; assay type: in vivo, Bromus tectorum; details: PREEMERGENCE; for Plant response rating Downy Brome: 0 to 100 scale
Text: as §1

crabgrass [6] = test: as above; assay type: in vivo, Digitaria sanguinalis; details: PREEMERGENCE; for Plant response rating, Crabgrass: 0 to 100 scale
Text: as §1

## CCCN1C(=O)COc2cc(F)c(-c3nn4c(c3Br)CCCC4)cc21 [Compound 63]
Wild buckwheat; 250 g/ha, 0 to 100 scale
  Plant response rating, Wild buckwheat: 100
Wild buckwheat; Rate 4 g/ha
  Plant response rating (0 to 100), Wild buckwheat: 0
Wild buckwheat; Rate 16 g/ha
  Plant response rating (0 to 100), Wild buckwheat: 50
barnyardgrass; POSTEMERGENCE, Rate 10 g/ha
  Plant response rating, Barnyardgrass: 3
barnyardgrass; POSTEMERGENCE, Rate 50 g/ha
  Plant response rating, Barnyardgrass: 5
barnyardgrass; PREEMERGENCE, Rate 10 g/ha
  Plant response rating, Barnyardgrass: 0
barnyardgrass; PREEMERGENCE, Rate 50 g/ha
  Plant response rating, Barnyardgrass: 0
barley; POSTEMERGENCE, Rate 10 g/ha
  Plant response rating, Barley: 4
barley; POSTEMERGENCE, Rate 50 g/ha
  Plant response rating, Barley: 5
barley; PREEMERGENCE, Rate 10 g/ha
  Plant response rating, Barley: 0
barley; PREEMERGENCE, Rate 50 g/ha
  Plant response rating, Barley: 0
Chickweed [1]; POSTEMERGENCE, Rate 10 g/ha
  Plant response rating, Chickweed: 5
Chickweed [1]; POSTEMERGENCE, Rate 50 g/ha
  Plant response rating, Chickweed: 9
Chickweed [1]; PREEMERGENCE, Rate 10 g/ha
  Plant response rating, Chickweed: 0
Chickweed [1]; PREEMERGENCE, Rate 50 g/ha
  Plant response rating, Chickweed: 9
Giant foxtail [2]; POSTEMERGENCE, Rate 10 g/ha
  Plant response rating, Giant foxtail: 3
Giant foxtail [2]; POSTEMERGENCE, Rate 50 g/ha
  Plant response rating, Giant foxtail: 3
Giant foxtail [2]; PREEMERGENCE, Rate 10 g/ha
  Plant response rating, Giant foxtail: 0
Giant foxtail [2]; PREEMERGENCE, Rate 50 g/ha
  Plant response rating, Giant foxtail: 1
Chickweed [3]; 62 g/ha
  Plant response rating, Chickweed: 30
Chickweed [3]; 250 g/ha
  Plant response rating, Chickweed: 50
Chickweed [3]; Rate 4 g/ha
  Plant response rating (0 to 100), Chickweed: 10
Chickweed [3]; Rate 16 g/ha
  Plant response rating (0 to 100), Chickweed: 20
Crabgrass [4]; POSTEMERGENCE, Rate 10 g/ha
  Plant response rating, Crabgrass: 3
Crabgrass [4]; POSTEMERGENCE, Rate 50 g/ha
  Plant response rating, Crabgrass: 3
Crabgrass [4]; PREEMERGENCE, Rate 10 g/ha
  Plant response rating, Crabgrass: 0
Crabgrass [4]; PREEMERGENCE, Rate 50 g/ha
  Plant response rating, Crabgrass: 0
Wild oat; 250 g/ha, 0 to 100 scale
  Plant response rating, Wild oat: 85
Wild oat; Rate 4 g/ha
  Plant response rating (0 to 100), Wild oat: 0
Wild oat; Rate 16 g/ha
  Plant response rating (0 to 100), Wild oat: 0
corn; POSTEMERGENCE, Rate 10 g/ha
  Plant response rating, Corn: 2
corn; POSTEMERGENCE, Rate 50 g/ha
  Plant response rating, Corn: 2
corn; PREEMERGENCE, Rate 50 g/ha
  Plant response rating, Corn: 0
wheat; POSTEMERGENCE, Rate 10 g/ha
  Plant response rating, Wheat: 4
wheat; POSTEMERGENCE, Rate 50 g/ha
  Plant response rating, Wheat: 5
wheat; PREEMERGENCE, Rate 50 g/ha
  Plant response rating, Wheat: 2
rape; POSTEMERGENCE, Rate 10 g/ha
  Plant response rating, Rape: 9
rape; POSTEMERGENCE, Rate 50 g/ha
  Plant response rating, Rape: 9
rape; PREEMERGENCE, Rate 50 g/ha
  Plant response rating, Rape: 6
bedstraw; 62 g/ha
  Plant response rating, Bedstraw: 100
bedstraw; 250 g/ha
  Plant response rating, Bedstraw: 100
bedstraw; Rate 4 g/ha
  Plant response rating (0 to 100), Bedstraw: 0
bedstraw; Rate 16 g/ha
  Plant response rating (0 to 100), Bedstraw: 10
sorghum; POSTEMERGENCE, Rate 10 g/ha
  Plant response rating, Sorghum: 3
sorghum; POSTEMERGENCE, Rate 50 g/ha
  Plant response rating, Sorghum: 5
sorghum; PREEMERGENCE, Rate 50 g/ha
  Plant response rating, Sorghum: 0
Giant foxtail [5]; 62 g/ha
  Plant response rating, Giant foxtail: 20
Giant foxtail [5]; 250 g/ha
  Plant response rating, Giant foxtail: 75
Giant foxtail [5]; Rate 4 g/ha
  Plant response rating (0 to 100), Giant foxtail: 0
Giant foxtail [5]; Rate 16 g/ha
  Plant response rating (0 to 100), Giant foxtail: 0
Downy brome; 62 g/ha
  Plant response rating Downy Brome: 20
Downy brome; 250 g/ha
  Plant response rating Downy Brome: 50
Downy brome; Rate 4 g/ha
  Plant response rating (0 to 100), Downy Brome: 0
Downy brome; Rate 16 g/ha
  Plant response rating (0 to 100), Downy Brome: 0
Crabgrass [6]; 62 g/ha
  Plant response rating, Crabgrass: 0
Crabgrass [6]; 250 g/ha
  Plant response rating, Crabgrass: 70
Crabgrass [6]; Rate 4 g/ha
  Plant response rating (0 to 100), Crabgrass: 0
Crabgrass [6]; Rate 16 g/ha
  Plant response rating (0 to 100), Crabgrass: 0
